Laboratory results published in ChEMBL document CHEMBL1201862, “PubChem BioAssay data set” (2004).
Calls of active or inactive are those of the source. Unless noted, no cut-off for these calls is given here.

What was measured:
Format in all cases: functional
[1] = target: Melanin-concentrating hormone receptor 1 (Homo sapiens, UniProt Q99705); assay: Late-stage fluorescence-based counterscreen for antagonists of the G-protein coupled receptor 7 (GPR7): cell-based dose response assay to identify antagonists of the melanin-concentrating hormone receptor 1 (MCHR1) Set 6.
Sequence of Melanin-concentrating hormone receptor 1 (Q99705 whole entry): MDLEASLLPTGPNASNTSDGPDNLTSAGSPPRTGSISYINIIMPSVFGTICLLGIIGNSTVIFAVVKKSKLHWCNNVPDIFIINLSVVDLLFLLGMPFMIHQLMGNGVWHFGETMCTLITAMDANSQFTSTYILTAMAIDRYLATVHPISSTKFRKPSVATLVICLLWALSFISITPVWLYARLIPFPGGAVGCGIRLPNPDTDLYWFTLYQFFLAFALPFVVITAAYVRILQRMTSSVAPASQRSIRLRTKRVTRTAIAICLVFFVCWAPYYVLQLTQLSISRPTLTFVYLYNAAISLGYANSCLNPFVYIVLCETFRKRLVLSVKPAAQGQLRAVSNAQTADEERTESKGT

[2] = target: T1, Neuropeptides B/W receptor type 1 (Homo sapiens, UniProt P48145); assay: GPR7 antagonist potency, late-stage follow-up, cell-based, fluorescence, dose response, set 6 (AID 588583)
T1 sequence (P48145 whole entry): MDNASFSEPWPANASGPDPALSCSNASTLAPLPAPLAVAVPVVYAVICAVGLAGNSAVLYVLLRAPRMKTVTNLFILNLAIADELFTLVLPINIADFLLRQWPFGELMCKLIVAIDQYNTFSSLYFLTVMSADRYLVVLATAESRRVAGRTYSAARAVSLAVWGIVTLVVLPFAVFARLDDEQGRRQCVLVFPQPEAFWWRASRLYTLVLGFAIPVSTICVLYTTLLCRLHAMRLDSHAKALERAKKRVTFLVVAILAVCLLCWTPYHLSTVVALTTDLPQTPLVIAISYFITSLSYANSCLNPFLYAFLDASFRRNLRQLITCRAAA

[3] = target: Multidrug resistance protein CDR2 (Candida albicans (strain SC5314 / ATCC MYA-2876) (Yeast), UniProt P78595); assay: CaCDR2 efflux pump inhibitors in yeast, dose response, S. cerevisiae AD1-8u, singleplex, Cherry Pick1 hits (AID 588604)
Sequence of Multidrug resistance protein CDR2 (P78595 whole entry): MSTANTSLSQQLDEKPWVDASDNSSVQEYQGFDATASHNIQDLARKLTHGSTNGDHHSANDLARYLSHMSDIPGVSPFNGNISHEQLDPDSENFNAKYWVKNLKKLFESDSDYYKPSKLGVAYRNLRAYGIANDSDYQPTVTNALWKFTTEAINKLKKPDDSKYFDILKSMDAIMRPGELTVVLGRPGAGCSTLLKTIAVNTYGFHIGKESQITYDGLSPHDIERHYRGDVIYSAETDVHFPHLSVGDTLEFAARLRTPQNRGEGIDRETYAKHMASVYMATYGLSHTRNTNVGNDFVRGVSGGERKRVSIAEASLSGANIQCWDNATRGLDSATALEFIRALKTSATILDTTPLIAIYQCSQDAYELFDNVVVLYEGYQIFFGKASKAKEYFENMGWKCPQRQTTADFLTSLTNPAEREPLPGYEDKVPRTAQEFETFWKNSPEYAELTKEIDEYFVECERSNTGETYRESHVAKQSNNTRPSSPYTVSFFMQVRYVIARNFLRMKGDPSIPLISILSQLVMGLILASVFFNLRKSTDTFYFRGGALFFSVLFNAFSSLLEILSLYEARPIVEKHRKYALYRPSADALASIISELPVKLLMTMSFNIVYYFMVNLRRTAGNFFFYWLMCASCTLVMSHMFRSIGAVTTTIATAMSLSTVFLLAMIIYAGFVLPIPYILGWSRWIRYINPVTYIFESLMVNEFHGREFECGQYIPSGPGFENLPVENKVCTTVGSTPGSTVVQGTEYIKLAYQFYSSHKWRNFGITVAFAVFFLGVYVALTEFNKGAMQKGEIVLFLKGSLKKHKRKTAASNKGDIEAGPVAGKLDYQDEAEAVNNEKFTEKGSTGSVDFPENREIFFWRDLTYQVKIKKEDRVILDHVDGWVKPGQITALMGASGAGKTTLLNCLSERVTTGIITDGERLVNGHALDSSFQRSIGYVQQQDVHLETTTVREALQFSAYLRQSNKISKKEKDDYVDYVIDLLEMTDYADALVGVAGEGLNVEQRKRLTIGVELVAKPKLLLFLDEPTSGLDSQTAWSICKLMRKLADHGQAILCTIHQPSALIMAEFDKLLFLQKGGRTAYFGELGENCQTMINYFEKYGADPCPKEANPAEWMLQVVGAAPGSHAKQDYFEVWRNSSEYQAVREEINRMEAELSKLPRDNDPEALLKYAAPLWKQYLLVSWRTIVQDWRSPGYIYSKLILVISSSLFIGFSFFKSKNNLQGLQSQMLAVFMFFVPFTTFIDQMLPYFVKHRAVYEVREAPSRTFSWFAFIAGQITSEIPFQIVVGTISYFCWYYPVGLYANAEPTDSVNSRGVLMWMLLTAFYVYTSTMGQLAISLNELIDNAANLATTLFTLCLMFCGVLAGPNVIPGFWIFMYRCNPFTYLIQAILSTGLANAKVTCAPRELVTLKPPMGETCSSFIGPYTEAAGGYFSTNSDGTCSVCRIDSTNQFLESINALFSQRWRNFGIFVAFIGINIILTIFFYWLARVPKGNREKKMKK

[4] = target: Sphingosine 1-phosphate receptor 1 (Homo sapiens, UniProt P21453); assay: Late-stage fluorescence-based dose-response cell-based counterscreen assay to identify agonists of the Sphingosine 1-Phosphate Receptor 4 (S1P4): Sphingosine 1-Phosphate Receptor 1 (S1P1) agonist assay Set 2.
Sequence of Sphingosine 1-phosphate receptor 1 (P21453 whole entry): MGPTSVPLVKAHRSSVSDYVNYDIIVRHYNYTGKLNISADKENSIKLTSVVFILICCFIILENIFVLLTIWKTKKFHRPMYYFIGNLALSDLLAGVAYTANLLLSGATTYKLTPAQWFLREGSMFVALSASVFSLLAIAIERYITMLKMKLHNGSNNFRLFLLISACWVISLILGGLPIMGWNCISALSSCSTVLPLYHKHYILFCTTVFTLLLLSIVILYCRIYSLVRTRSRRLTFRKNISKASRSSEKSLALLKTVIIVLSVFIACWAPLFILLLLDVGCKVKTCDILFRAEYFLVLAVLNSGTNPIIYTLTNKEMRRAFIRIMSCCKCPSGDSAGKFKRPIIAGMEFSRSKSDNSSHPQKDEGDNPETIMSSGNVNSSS

[5] = target: Sphingosine 1-phosphate receptor 5 (Homo sapiens, UniProt Q9H228); assay: S1P5 receptor agonists, human, late-stage follow-up, counter-screen for S1P4 agonist project, cell-based, fluorescence, set 2 (AID 504867)
Sequence of Sphingosine 1-phosphate receptor 5 (Q9H228 whole entry): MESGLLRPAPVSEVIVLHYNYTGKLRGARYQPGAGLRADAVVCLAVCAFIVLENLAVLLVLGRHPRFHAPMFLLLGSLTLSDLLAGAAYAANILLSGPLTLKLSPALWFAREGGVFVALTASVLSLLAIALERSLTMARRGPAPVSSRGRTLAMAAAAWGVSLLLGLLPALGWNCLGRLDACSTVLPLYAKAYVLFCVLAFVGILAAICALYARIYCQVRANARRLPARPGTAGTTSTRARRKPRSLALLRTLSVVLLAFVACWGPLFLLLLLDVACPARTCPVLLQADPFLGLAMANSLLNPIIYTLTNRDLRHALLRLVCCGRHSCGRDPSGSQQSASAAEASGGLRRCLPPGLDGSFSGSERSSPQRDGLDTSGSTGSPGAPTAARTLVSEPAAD

[6] = target: Sphingosine 1-phosphate receptor 3 (Homo sapiens, UniProt Q99500); assay: Late-stage fluorescence-based dose-response cell-based counterscreen assay to identify agonists of the Sphingosine 1-Phosphate Receptor 4 (S1P4): Sphingosine 1-Phosphate Receptor 3 (S1P3) agonist assay Set 2.
Sequence of Sphingosine 1-phosphate receptor 3 (Q99500 whole entry): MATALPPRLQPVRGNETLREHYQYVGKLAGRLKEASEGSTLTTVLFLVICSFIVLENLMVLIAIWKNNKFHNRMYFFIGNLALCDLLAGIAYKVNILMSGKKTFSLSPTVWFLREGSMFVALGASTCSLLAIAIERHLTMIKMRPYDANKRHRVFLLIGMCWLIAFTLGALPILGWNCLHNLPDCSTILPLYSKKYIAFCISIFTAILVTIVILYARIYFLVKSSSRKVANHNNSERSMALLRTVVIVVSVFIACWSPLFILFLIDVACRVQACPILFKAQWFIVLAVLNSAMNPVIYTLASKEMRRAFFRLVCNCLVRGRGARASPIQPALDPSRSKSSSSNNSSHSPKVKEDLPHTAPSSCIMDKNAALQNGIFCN

[7] = target: Sphingosine 1-phosphate receptor 2 (Homo sapiens, UniProt O95136); assay: S1P2 receptor agonists, human, late-stage follow-up, counter-screen for S1P4 agonist project, cell-based, fluorescence, set 2 (AID 504873)
Sequence of Sphingosine 1-phosphate receptor 2 (O95136 whole entry): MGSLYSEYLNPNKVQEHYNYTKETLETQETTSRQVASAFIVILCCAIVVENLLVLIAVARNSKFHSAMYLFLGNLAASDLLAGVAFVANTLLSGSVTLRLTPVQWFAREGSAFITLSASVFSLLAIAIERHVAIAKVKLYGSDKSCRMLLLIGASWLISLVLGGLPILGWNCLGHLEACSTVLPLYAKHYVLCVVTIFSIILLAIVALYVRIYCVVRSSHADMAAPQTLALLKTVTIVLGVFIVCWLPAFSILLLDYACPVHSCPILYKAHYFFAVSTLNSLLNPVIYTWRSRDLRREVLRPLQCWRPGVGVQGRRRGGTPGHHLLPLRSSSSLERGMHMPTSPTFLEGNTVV

[8] = THP-1 cell cytotoxicity, cytotoxicity control, set 5 (AID 588443)
[9] = target: T2, High affinity choline transporter 1 (Homo sapiens, UniProt Q9GZV3); assay: CHT inhibitors, dose response, cell-based, 10-point CRC, membrane potential dye (AID 588401);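 note: membrane potential dye fluorescence of choline-evoked depolarization via CHT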
T2 sequence (Q9GZV3 whole entry): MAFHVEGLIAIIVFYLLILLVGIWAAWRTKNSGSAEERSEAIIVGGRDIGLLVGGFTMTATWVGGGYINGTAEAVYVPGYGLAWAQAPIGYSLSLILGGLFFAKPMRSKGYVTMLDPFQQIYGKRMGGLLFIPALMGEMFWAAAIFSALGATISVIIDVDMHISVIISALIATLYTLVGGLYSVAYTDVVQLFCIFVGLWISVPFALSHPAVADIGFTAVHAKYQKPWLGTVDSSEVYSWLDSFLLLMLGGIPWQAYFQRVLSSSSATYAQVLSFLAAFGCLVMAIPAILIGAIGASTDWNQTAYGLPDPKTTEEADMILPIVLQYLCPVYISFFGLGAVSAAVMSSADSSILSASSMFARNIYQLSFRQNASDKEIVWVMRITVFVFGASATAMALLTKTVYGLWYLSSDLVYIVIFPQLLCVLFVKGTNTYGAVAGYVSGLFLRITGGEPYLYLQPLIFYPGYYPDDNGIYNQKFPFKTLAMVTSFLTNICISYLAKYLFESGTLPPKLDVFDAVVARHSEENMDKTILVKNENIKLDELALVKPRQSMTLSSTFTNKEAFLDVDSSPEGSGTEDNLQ

[10] = target: T2, High affinity choline transporter 1; assay: CHT inhibitors, dose response, cell-based, 5-point CRC, membrane potential dye (AID 504840)
[11] = target: T3, Protein disulfide-isomerase (Homo sapiens, UniProt P07237); assay: PDI inhibitors, insulin turbidity readout, dose response, biochemical, absorbance, cherry-picked samples, set 2 (AID 624274)
T3 sequence (P07237 whole entry): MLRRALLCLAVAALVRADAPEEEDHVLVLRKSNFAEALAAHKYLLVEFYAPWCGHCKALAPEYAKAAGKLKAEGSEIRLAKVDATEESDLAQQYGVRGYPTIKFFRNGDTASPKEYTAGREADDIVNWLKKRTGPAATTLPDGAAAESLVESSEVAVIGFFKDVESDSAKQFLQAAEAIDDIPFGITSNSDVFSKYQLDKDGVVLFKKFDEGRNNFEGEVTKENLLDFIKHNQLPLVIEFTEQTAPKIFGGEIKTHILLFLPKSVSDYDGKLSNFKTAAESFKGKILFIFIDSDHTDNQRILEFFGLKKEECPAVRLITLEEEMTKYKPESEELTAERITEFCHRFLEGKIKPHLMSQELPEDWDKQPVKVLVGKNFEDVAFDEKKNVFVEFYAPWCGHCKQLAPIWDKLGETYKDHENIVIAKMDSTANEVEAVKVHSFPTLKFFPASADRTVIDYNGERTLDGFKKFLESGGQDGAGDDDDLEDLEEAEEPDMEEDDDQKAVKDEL

[12] = target: T3, Protein disulfide-isomerase; assay: PDI inhibitors, insulin aggregation turbidity, dose response, biochemical, absorbance, cherry-picked samples (AID 602350)
[13] = target: T4, Apoptotic protease-activating factor 1 (Homo sapiens, UniProt O14727); assay: SAR analysis of small molecule inhibitors of Apaf-1 in a Fluorescent assay.; conditions: read-out: IC50_Mean
T4 sequence (O14727 whole entry): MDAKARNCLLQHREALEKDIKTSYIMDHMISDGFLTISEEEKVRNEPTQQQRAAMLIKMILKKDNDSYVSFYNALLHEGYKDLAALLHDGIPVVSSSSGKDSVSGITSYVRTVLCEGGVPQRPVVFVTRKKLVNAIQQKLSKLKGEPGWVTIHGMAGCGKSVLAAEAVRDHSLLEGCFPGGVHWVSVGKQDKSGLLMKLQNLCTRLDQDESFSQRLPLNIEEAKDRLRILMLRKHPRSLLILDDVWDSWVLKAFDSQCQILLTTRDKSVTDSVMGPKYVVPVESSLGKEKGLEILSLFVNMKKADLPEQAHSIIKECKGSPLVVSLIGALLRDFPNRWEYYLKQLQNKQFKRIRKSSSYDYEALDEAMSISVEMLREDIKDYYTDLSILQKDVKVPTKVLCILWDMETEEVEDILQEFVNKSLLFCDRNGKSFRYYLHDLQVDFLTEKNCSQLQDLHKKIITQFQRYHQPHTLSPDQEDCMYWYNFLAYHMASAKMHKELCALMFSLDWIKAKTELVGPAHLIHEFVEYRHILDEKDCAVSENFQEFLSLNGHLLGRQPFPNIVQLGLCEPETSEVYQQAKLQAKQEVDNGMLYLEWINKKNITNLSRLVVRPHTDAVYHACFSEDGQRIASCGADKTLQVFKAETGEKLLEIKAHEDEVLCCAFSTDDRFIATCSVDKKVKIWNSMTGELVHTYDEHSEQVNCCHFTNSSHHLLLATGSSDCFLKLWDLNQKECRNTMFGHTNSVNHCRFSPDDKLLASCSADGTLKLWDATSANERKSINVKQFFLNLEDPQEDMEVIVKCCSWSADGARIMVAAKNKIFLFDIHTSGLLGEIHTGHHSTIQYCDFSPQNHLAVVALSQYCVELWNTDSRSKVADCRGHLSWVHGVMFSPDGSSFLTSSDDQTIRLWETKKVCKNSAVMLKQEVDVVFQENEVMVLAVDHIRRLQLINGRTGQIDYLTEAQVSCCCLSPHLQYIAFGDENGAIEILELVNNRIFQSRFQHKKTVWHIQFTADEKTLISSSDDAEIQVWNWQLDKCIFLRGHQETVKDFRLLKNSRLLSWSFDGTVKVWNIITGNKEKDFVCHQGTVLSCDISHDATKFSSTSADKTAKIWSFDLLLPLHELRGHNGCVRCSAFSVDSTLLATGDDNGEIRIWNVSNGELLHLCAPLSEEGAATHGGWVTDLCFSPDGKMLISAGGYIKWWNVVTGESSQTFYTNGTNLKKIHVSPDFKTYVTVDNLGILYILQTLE

Structure (SMILES): N#CC(c1ccc(F)cc1)c1c(Cl)cnn(Cc2cccc3ccccc23)c1=O (stereo not drawn)
- IC50 [1]: 0.154 µM (active)
- IC50 [2]: 0.154 µM (active)

Structure (SMILES): COc1cccc(-c2sc3ccc(OC)cc3c2-c2ccc(OCCN3CCCC3)cc2)c1
- EC50 [3]: 10.2 µM (active)

Structure (SMILES): CC/N=C1/S/C(=C/c2cc(C)n(-c3ccc(F)cc3F)c2C)C(=O)N1CC
- EC50 [4]: 0.816 µM (active)
- EC50 [5]: 6.18 µM (active)
- EC50 [6]: > 25 µM (inactive)
- EC50 [7]: > 25 µM (inactive)

Structure (SMILES): CC(C)OC(=O)CSc1ncnc2c1cnn2-c1ccccc1
- CC50 [8]: > 100 µM (active)

Structure (SMILES): CC(C)CC(=O)N=c1nc(S)ss1
- IC50 [9]: 3.98 µM (active)
- IC50 [10]: 3.02 µM (active)

Structure (SMILES): CN(C)C1(c2nnnn2CCOC(=O)Nc2ccc(Cl)cc2)CCCCC1
- AC50 [11]: 0.009 µM (active)
- AC50 [12]: < 0.009 µM (active)

Structure (SMILES): O=C(Nc1ccc2c(c1)C(=O)NC2=O)c1nc2ccccc2s1
- IC50 [13]: > 100 µM (inactive)
